Tests used:
[1] = system: Bacteroides thetaiotaomicron; assay: BRV conversion assay with gut isolates; format: in vitro ADME; conditions: among ten bacterial species
Description: (§1) Frozen stocks of bacteria (Table 4) are plated on BHI blood agar and incubated at 37° C. under anaerobic conditions. Single colonies are inoculated into 4 mL pre-reduced GMM and incubated anaerobically at 37° C. for 24 h (Akkermansia muciniphila for 48 hours). BRV conversion assays are performed with the resulting dense cultures, as described above for bacterial communities.

[2] = format: in vivo, C57BL/6J mice
Description: Germfree mice were colonized with the wildtype and mutant strains. BRV was administered.
Individually caged GF C57BL/6J mice are colonized by oral gavage with 200 μL of an overnight GMM culture of either B. thetaiotaomicron wild type or bt4554 strains to generate GN^WT or GN^MUT mice, respectively. After 4 days, bacterial loads are determined by CFU plating on BHI blood agar prior to drug treatment.
Each drug treatment is performed using 20 treated and 5 to 6 untreated animals. Both genders are equally represented in each group and evenly distributed across the different time points for sample collection. Animals (n=5 per time point and group) are given 100 mg/kg body weight of BRV or SRV as suspensions in PBS (200 μL PBS for controls) by oral gavage. One blood sample is collected from each animal at an early time point (0.5, 1, 1.5, or 2 hours after drug administration) by submandibular bleeding. At 3, 5, 7, and 9 h, mice are sacrificed and tissue samples are collected into sample tubes and snap-frozen. Fecal samples are collected before euthanization and re-suspended in PBS (1 mL) through vigorous shaking. 20 μL are then plated on BHI blood plates and incubated aerobically and anaerobically at 37° C. to check GF, GN^WT, and GN^MUT animals for contamination. Monocolonized mice are also checked for contamination by PCR using primers 7 and 8.

Bacteroides ovatus = format: in vitro ADME
Description: as §1

BT4554 = assay: B. thetaiotaomicron loss-of-function screen, bt4554 deletion and complementation; format: in vitro ADME, Bacteroides thetaiotaomicron
Description: Two independent strategies were developed to identify the microbiome-encoded DMEs responsible for these chemical transformations. For members of the Bacteroides (the most prominent genus in the human gut microbiome in the experiments), Proteobacteria, and other genetically tractable species, Insertion Sequencing (INSeq) is used to make mapped, arrayed transposon mutant libraries as described in Goodman 2009 and Goodman 2011. From these libraries, a representative set of mutants was identified that collectively include disruptions in most non-essential genes. Each mutant was incubated with the pool of drugs metabolized by the parent species. Genes required for drug metabolism by LC-MS were identified as above.
1,352 B. thetaiotaomicron mutants were selected from an arrayed library as described in Goodman 2009 that disrupt ˜70% of its non-essential genes. Each mutant was incubated with a pool of 30 drugs metabolized by this organism. Drug levels were measured over time as above. […] FIGS. 10A-C show two examples: one of these is brivudine, an antiviral whose primary metabolite (bromovinyluracil; BVU) is dangerously toxic for patients taking 5-fluorouracil, a principal therapy for colorectal cancer. With reference to FIGS. 10A-C, transposon mutants representing disruptions in 70% of B. thetaiotaomicron (Bt) non-essential genes were screened for metabolism of 30 drugs targeted by the parent strain.
The contribution of microbial drug metabolism to serum drug and metabolite exposure was directly quantified by specifically modulating this activity in otherwise identical mice. To this end, the capacity of ten individual bacterial species was first determined, representing five major phyla that dominate the mammalian gut microbiota, for their capacity to convert BRV to BVU as illustrated in FIG. 14A. […]
Frozen stocks are re-suspended in 4 mL pre-reduced GMM and incubated anaerobically at 37° C. for 14 h. […] Substrates and reaction product are extracted and quantified by LC-MS as described below. […]

[3] = Liver S9 enzyme assay of conversion to BVU; format: in vitro ADME
Description: Human and murine S9 liver fractions are purchased from Thermo Fisher Scientific (HMS9L and MSMCPL, respectively). Enzyme assays are performed for the deglycosylation of arabinosyluracil derivatives. In brief, assays are performed at 37° C. Reaction volumes are 150 μL with liver S9 fractions at 5 μg/μL and BRV or SRV at 100 μM in 10 mM phosphate buffer (pH 7.4). Reactions are initiated by addition of drugs to pre-warmed reaction mixture. 10 μL samples are collected and quenched in 10 μL acetonitrile on ice at 0, 5, 10, 15, 20, 30, 45, 60, 90, 120, 180, 270, and 360 min after initiation. Substrates and reaction product are extracted and quantified by LC-MS as described below.

[4] = model parameter; Clinical Virology 3rd edition, 2009; cited from earlier work

Structure (SMILES): O=c1[nH]c(=O)n([C@H]2C[C@H](O)[C@@H](CO)O2)cc1/C=C/Br [BRV, Brivudine]
- capacity to convert BRV to BVU [1]: highest metabolic activity
- absorption of BRV from the lower intestine ([2]; GN^MUT mice excrete the drug in feces): poorly absorbed
- metabolism of cecal BRV by wildtype B. thetaiotaomicron ([2]; GN^WT mice): completely metabolizes
- thymine in the liver ([2]; GN^WT mice after BRV administration): thymine accumulation in the liver
- BRV serum kinetics ([2]; GN^WT versus GN^MUT mice): indistinguishable
- capacity to convert BRV to BVU (Bacteroides ovatus): highest metabolic activity
- role of bt4554 in BRV conversion to BVU (BT4554; targeted gene deletion and complementation at different expression levels): necessary and sufficient
- conversion to BVU by mutant in BT4554 (BT4554; transposon mutant, recapitulated by nonpolar deletion): unable to convert
- conversion of BRV to BVU ([3]; human S9 liver fractions): stoichiometric conversion to BVU
- conversion of BRV to BVU ([3]; murine S9 liver fractions): stoichiometric conversion to BVU
- F, bioavailability of the drug [4]: 0.3 fraction

From patent publication US20210183467A1, “SYSTEM AND METHOD FOR USING MICROBIOME TO DE-RISK DRUG DEVELOPMENT” (YALE UNIVERSITY, priority 2018, published 2021)
